Experimental data from US7442687B2, “2-polycyclic propynyl adenosine analogs having A2A agonist activity” (The University of Virginia Patent Foundation, priority 2004, dated 2008).
Like-named read-outs stand apart in the source and are kept apart here.

Key:
human A3 AR = target: T1, human A3 AR (Homo sapiens, UniProt P0DMS8); experiment: Radioligand binding (125I-ABA competition) to human A3 AR in HEK 293 cell membranes; conditions: read-out: Binding Affinity A3
T1 construct: expressed in transfected cells
T1 sequence (P0DMS8 1-318): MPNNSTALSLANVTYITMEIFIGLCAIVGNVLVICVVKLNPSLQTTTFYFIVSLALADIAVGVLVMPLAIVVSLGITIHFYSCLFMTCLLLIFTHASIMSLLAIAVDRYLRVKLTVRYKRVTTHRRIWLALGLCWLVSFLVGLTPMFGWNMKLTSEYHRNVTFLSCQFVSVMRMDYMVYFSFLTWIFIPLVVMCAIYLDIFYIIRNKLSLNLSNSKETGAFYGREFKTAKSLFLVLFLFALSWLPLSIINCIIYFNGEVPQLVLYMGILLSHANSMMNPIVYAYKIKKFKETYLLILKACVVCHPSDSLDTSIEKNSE
Method: (§1) Sf9 cells were cultured in Grace's medium supplemented with 10% fetal bovine serum, 2.5 μg/ml amphotericin B and 50 μg/ml gentamycin in an atmosphere of 50% N2/50% O2. Viral infection was performed at a density of 2.5×10^6 cells/mL with a multiplicity of infection of two for each virus used. Infected cells were harvested 3 days post-infection and washed twice in insect PBS (PBS pH 6.3). Cells were then resuspended in lysis buffer (20 mM HEPES pH 7.5, 150 mM NaCl, 3 mM MgCl2, 1 mM β-mercaptoethanol (BME), 5 μg/mL leupeptin, 5 μg/mL pepstatin A, 1 μg/mL aprotinin, and 0.1 mM PMSF) and snap frozen for storage at −80° C. Cells were thawed on ice, brought to 30 mL total volume in lysis buffer, and burst by N2 cavitation (600 psi for 20 minutes). A low-speed centrifugation was performed to remove any unlysed cells (1000×g for 10 minutes), followed by a high-speed centrifugation (17,000×g for 30 minutes). The pellet from the final centrifugation was homogenized in buffer containing 20 mM HEPES pH 8, 100 mM NaCl, 1% glycerol, 2 μg/mL leupeptin, 2 μg/mL pepstatin A, 2 μg/mL Aprotinin, 0.1 mM PMSF, and 10 μM GDP using a small glass homogenizer followed by passage through a 26 gauge needle. Membranes were aliquoted, snap frozen in liquid N2, and stored at −80° C. Membranes from cells stably expressing the human A1 AR (CHO K1 cells) or A3 AR (HEK 293 cells) were prepared as described (Robeva et al., 1996).
(§2) Radioligand binding to recombinant human A2A receptors in Sf9 cell membranes was performed using either the radio labeled agonist, ^125I-APE (Luthin et al., 1995) or the radio labeled antagonist, ^125I-ZM241385 (^1251-ZM). To detect the high affinity, GTPγS-sensitive state of A1 and A3 AR, we used the agonist, ^125I-ABA (Linden et al., 1985;Linden et al., 1993). Binding experiments were performed in triplicate with 5 μg (A2A) or 25 μg (A1 and A3) membrane protein in a total volume of 0.1 mL HE buffer (20 mM HEPES and 1 mM EDTA) with 1 U/mL adenosine deaminase and 5 mM MgCl2 with or without 50 μM GTPγS. Membranes were incubated with radioligands at room temperature for three hours (for agonists) or two hours (for antagonists) in Millipore Multiscreen® 96-well GF/C filter plates and assays were terminated by rapid filtration on a cell harvester (Brandel, Gaithersburg, Md.) followed by 4×150 μl washes over 30 seconds with ice cold 10 mM Tris-HCl, pH 7.4, 10 mM MgCl2. Nonspecific binding was measured in the presence of 50 μM NECA. Competition binding assays were performed as described (Robeva et al., 1996) using 0.5-1 nM ^125I-APE, ^125I-ZM241385, or ^125I-ABA. […] The Ki values for competing compound binding to a single site were derived from IC50 values with correction for radioligand and competing compound depletion as described previously (Linden, 1982).

human neutrophils = experiment: Human neutrophil oxidative activity, luminol-enhanced chemiluminescence (TNF-primed, fMLP-stimulated); type: cell-based; conditions: peak chemiluminescence
Excerpt: Chemiluminescence Methods: Luminol enhanced chemiluminescence, a measure of neutrophil oxidative activity, is dependent upon both superoxide production and mobilization of the granule enzyme myeloperoxidase. The light is emitted from unstable high-energy oxygen species such as hypochlorous acid and singlet oxygen generated by activated neutrophils.
Purified human neutrophils (2×10^6/ml) suspended in Hanks balanced salt solution containing 0.1% human serum albumin (HA), adenosine deaminase (1 U/mL) and rolipram (100 nM) were incubated (37° C.) in a water bath for 15 min with or without rhTNF(10 U/ml). Following incubation 100 µL aliquots of the PMN were transferred to wells (White walled clear bottom 96 well tissue culture plates Costar #3670; 2 wells/condition) containing […] and luminol (final concentration […]) with or without adenosine agonist (final agonist concentrations 0.01-1000 nM). The plate was incubated 5 min (37° C.) and then FMLP (501 in HA; final concentration […]) was added to all wells.
Peak chemiluminescence was determined with a Victor 1420 Multilabel Counter in the chemiluminescence mode using the Wallace Workstation software. Data are presented as peak chemiluminescence as percent of activity in the absence of an adenosine agonist. The EC50 was determined using PRISM software. All compounds were tested with PMNs from three separate donors.
Purified neutrophils (˜98% neutrophils and >95% viable by trypan blue exclusion) containing <1 platelet per 5 neutrophils and <50 pg/ml endotoxin (limulus amebocyte lysate assay) were obtained from normal heparinized (10 U/ml) venous blood by a one step Ficoll-hypaque separation procedure (A. Ferrante et al., J. Immunol. Meth., 36, 109 (1980)).
Luminol-enhanced chemiluminescence, a measure of neutrophil oxidative activity, is dependent upon both superoxide production and mobilization of the lysosomal granule enzyme myeloperoxidase. The light is emitted from unstable high-energy oxygen species generated by activated neutrophils. Purified neutrophils (5-10×10^5/ml) were incubated in Hanks balanced salt solution containing 0.1% human serum albumin (1 ml) with the tested A2A agonist with or without rolipram and with or without tumor necrosis factor-alpha (1 U/ml) for 30 minutes at 37° C. in a shaking water bath. Then luminol (1×10^−4 M) enhanced f-met-leu-phe (1 mcM) stimulated chemiluminescence was read with a Chronolog® Photometer (Crono-log Corp., Havertown, Pa.) at 37° C. for 2-4 minutes. Chemiluminescence is reported as relative peak light emitted (=height of the curve) compared to samples with tumor necrosis factor-alpha and without agonist or rolipram.

human A1 AR = target: T2, human A1 AR (Homo sapiens, UniProt P30542); experiment: Radioligand binding (125I-ABA competition) to human A1 AR in CHO K1 cell membranes; conditions: read-out: Binding Affinity A1
T2 construct: expressed in transfected cells
T2 sequence (P30542 1-326): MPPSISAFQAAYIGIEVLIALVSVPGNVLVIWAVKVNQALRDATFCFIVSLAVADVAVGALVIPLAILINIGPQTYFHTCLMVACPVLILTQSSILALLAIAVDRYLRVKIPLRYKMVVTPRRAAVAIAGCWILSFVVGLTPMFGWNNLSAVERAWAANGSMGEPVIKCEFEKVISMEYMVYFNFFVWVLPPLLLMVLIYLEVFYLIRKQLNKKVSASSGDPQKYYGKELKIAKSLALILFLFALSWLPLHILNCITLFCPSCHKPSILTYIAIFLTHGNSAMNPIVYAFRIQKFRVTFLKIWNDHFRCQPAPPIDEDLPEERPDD
Method: as §1, §2

[1] = target: T3, recombinant human A2A receptors (Homo sapiens, UniProt P29274); experiment: Radioligand binding to recombinant human A2A receptors in Sf9 cell membranes; conditions: recombinant human A2A receptor, 125I-APE or 125I-ZM241385, read-out: Binding Affinity A2A
T3 construct: expressed in transfected cells; host or cells: Sf9 insect cells, viral infection
T3 sequence (P29274 whole entry): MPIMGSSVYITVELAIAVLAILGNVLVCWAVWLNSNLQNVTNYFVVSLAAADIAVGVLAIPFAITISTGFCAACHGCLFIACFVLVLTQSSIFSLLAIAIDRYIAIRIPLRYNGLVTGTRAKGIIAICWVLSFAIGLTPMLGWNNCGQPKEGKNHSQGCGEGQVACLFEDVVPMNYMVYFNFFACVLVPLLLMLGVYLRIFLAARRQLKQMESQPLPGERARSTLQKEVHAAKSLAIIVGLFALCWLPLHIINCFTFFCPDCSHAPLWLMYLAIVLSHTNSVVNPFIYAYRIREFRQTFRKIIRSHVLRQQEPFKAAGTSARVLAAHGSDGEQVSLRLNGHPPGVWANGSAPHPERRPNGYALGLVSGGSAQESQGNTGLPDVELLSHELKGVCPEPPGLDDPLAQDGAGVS
Method: as §1, §2

[2] = human neutrophil experiment with Rolipram, read-out: Functional + Roli
[3] = human neutrophil experiment without Rolipram, read-out: Functional

Ki (human A3 AR) [nM]	EC50 (human neutrophils; [2]) [nM]	EC50 (human neutrophils; [3]) [nM]	Ki (human A1 AR) [nM]	Ki [1] [nM]	EC50 (human neutrophils; Homo sapiens, Neutrophil, human neutrophil experiment with Rolipram, read-out: Functional + Roli) [nM]	EC50 (human neutrophils; Homo sapiens, Neutrophil, human neutrophil experiment without Rolipram, read-out: Functional) [nM]	SMILES
10	0.22	3.1	31	0.2			CCNC(=O)[C@H]1O[C@@H](n2cnc3c(N)nc(C#CC4(O)CC5CCC4C5)nc32)C(O)C1O (single isomer, unassigned) [Example 1, 5-[6-Amino-2-(2-hydroxy-bicyclo[2.2.1]hept-2-ylethynyl)-purin-9-yl]-3,4-dihydroxy-tetrahydro-furan-2-carboxylic acid ethylamide]
3	0.058	0.5	11	0.3			CCNC(=O)[C@H]1O[C@@H](n2cnc3c(N)nc(C#CC4(O)CC5CCC4C5)nc32)C(O)C1O (single isomer, unassigned) [Example 2, 5-[6-Amino-2-(2-hydroxy-bicyclo[2.2.1]hept-2-ylethynyl)-purin-9-yl]-3,4-dihydroxy-tetrahydro-furan-2-carboxylic acid ethylamide]
4			75	0.2	0.22	3.8	CCNC(=O)[C@H]1O[C@@H](n2cnc3c(N)nc(C#CC4(O)C5CC6CC(C5)CC4C6)nc32)C(O)C1O (stereo in doubt) [Example 3, 5-[6-Amino-2-(2-hydroxy-adamantan-2-ylethynyl)-purin-9-yl]-3,4-dihydroxy-tetrahydro-furan-2-carboxylic acid ethylamide]
28.3	3.7	25	7.3	6.4			CCNC(=O)[C@H]1O[C@@H](n2cnc3c(N)nc(C#CC4(O)CCCC5CCCCC54)nc32)C(O)C1O (stereo in doubt) [Example 4, 5-[6-Amino-2-(1-hydroxy-decahydro-naphthalen-1-ylethynyl)-purin-9-yl]-3,4-dihydroxy-tetrahydro-furan-2-carboxylic acid ethylamide]
4.9	0.28	2.5	2.6	0.7			CCNC(=O)[C@H]1O[C@@H](n2cnc3c(N)nc(C#CC4(O)CCCC5CCCCC54)nc32)C(O)C1O (stereo in doubt) [Example 5, 5-[6-Amino-2-(1-hydroxy-decahydro-naphthalen-1-ylethynyl)-purin-9-yl]-3,4-dihydroxy-tetrahydro-furan-2-carboxylic acid ethylamide]
2.9	0.3	4.9	28.5	0.6			Nc1nc(C#CC2(O)C3CC4CC(C3)CC2C4)nc2c1ncn2[C@@H]1O[C@H](CO)C(O)C1O (stereo in doubt) [Example 6, 2-[6-Amino-2-(2-hydroxy-adamantan-2-ylethynyl)-purin-9-yl]-5-hydroxymethyl-tetrahydro-furan-3,4-diol]
